Test [1] is filed under the species Cavia porcellus. Put plainly: Compound was measured for inotropic activity against isolated guinea pig atria at concentration 3 x 10e-4; Negative inotropic activity. Type of test: functional.
Test [2] is filed under the species Cavia porcellus. Kind of test: Compound was measured for inotropic activity against isolated guinea pig atria at concentration 3 x 10e-4. Type of test: functional.

In the case of `C[C@]12CCC(OC(c3ccccc3)(c3ccccc3)c3ccccc3)C[C@@]1(O)CC[C@@H]2CO` (stereo not given in full), in the test filed under Cavia porcellus [1], the Activity entry is “Negative inotropic activity”.
With `C[C@]12CCC3(C[C@@]1(O)CCC2/C=N/N=C(N)N)OCCO3` (stereo not given in full), the Activity entry in the test listed under Cavia porcellus [1] was “Negative inotropic activity”.
With `C[C@]12CC/C(=N\N=C(N)N)C[C@@]1(O)CCC2/C=N/N=C(N)N` (stereo not given in full), in the test listed under Cavia porcellus [1], the Activity result is “Negative inotropic activity”.
With `COC(=O)/C=C/[C@H]1CC[C@]2(O)CC3(CC[C@]12C)SCCCS3`, the Reduction in the test filed under Cavia porcellus [2] was determined as 85%.
The same measure, in the same setting: with `CC(=O)OC[C@H]1CC[C@]2(O)CC3(CC[C@]12C)SCCCS3` the figure was 56%.

Source of the values: ChEMBL document CHEMBL1130673, “Hydroindenic-guanylhydrazones. Synthesis and evaluation as inotropic agents” (1998).
